This experiment has as its target T1, IL-17A/A (Homo sapiens, UniProt Q16552).
T1 construct: purchased Genscript Z03228
T1 sequence (Q16552 24-155): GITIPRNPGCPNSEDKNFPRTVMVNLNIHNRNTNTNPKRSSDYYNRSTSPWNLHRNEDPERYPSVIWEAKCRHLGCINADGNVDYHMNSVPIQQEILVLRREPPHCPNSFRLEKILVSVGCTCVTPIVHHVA
Description: IL-17A/A HEK-Blue Cell Assay. The experiment is classed as cell-based. To be noted: HEK-Blue IL-17A reporter cell line, SEAP readout at A630, 20 hours incubation with IL-17A/A, top concentration 10 uM, 1 uM or 0.3 uM; for IC50: read-out: IL-17A/A inhibition (pIC50) (converted).

A value given as a limit tells only on which side of the number the result lay.

`CCC(=O)N[C@@H](C(=O)N1CCN(C)CC1)[C@@H](C)c1ccc(NC(=O)[C@@H](NC(=O)C(F)(F)c2ccc(OC)nc2)C2CCC(F)(F)CC2)c(F)c1` [Compound 220]: the IC50 is 10 to 100 nM. Same read-out and setting: in the case of `CCn1nccc1C(=O)N[C@H](C(=O)Nc1ccc([C@H](C)[C@@H](NC(=O)C(F)(F)CC)C(=O)N2CCN(C)[C@H](C)C2)cc1F)[C@H]1CC[C@H](C)CC1` [Compound 481] it was under 10 nM; in that of `CCc1nonc1C(=O)N[C@H](C(=O)Nc1ccc([C@H](C)[C@@H](NC(=O)CC2CC2)C(=O)N2CCN(C)[C@@H](C)C2)cc1F)[C@H]1CC[C@H](C)CC1` [Compound 506], under 10 nM. Same read-out and setting: for `CCC(=O)N[C@@H](C(=O)N1CCN(C)CC1)[C@@H](C)c1ccc(NC(=O)[C@@H](NC(=O)C(F)(F)c2cccc(C#N)c2)C2CCCCC2)cc1` [Compound 300] the value was 10 to 100 nM; for `CCC(=O)N[C@@H](C(=O)N1CCC(CC(=O)OC(C)(C)C)CC1)[C@@H](C)c1ccc(NC(=O)[C@@H](NC(=O)c2ccnn2CC)[C@H]2CC[C@H](C)CC2)c(F)c1` [Compound 421], 10 to 100 nM.

Regarding `CCC(=O)N[C@H](Cc1ccc(NC(=O)[C@H](Cc2ccc(C(F)(F)F)cc2)NC(=O)c2ccnn2CC)c(F)c1)C(=O)N1CCN(C)CC1` [Compound 723], the “IL-17A/A inhibition (pIC50)” value is “X2b (compounds were evaluated up to 1 uM and inhibited activity at 1 uM by less than 20%)”. In the case of `CCC(=O)N[C@@H](C(=O)NC1CCOCC1)[C@@H](C)c1ccc(NC(=O)[C@@H](NC(=O)c2ccnn2CC)C2CCCCC2)c(F)c1` [Compound 360], the IC50 was 10 to 100 nM.

`CCn1nccc1C(=O)N[C@H](C(=O)Nc1ccc([C@H](C)[C@@H](NC(=O)c2csc(N)n2)C(=O)N2CCN(C)CC2)cc1F)C1CCCCC1` [Compound 695]: the IC50 is 100 to 10000 nM. Still for that read-out and setting: for `CCC(=O)N[C@@H](C(=O)N1CCOCC1)[C@@H](C)c1ccc(NC(=O)[C@@H](NC(=O)c2ccnn2CC)[C@H]2CC[C@H](C)CC2)c(F)c1` [Compound 342] the value was 10 to 100 nM; for `CCC(=O)N[C@@H](C(=O)N1CC(F)(F)C1)[C@@H](C)c1ccc(NC(=O)[C@@H](NC(=O)c2ccnn2CC)C2CCCCC2)c(F)c1` [Compound 629], 100 to 10000 nM; for `CCC(=O)N[C@@H](C(=O)N1CCOCC1)[C@@H](C)c1ccc(NC(=O)[C@@H](NC(=O)C(F)(F)c2cccc(C#N)c2)C2CCCCC2)c(F)c1` [Compound 352], 10 to 100 nM.

`CCc1nonc1C(=O)N[C@H](C(=O)Nc1ccc([C@H](C)[C@@H](NC(=O)C(F)F)C(=O)N2CCN(C)[C@@H](C)C2)cc1F)[C@H]1CC[C@H](C)CC1` [Compound 512]: the “IL-17A/A inhibition (pIC50)” value is reported as “B (8>B≥7 as B)”. Still for that read-out and setting: in the case of `CCC(=O)N[C@H](Cc1ccc(NC(=O)[C@@H](NC(=O)Cc2cccc(O)c2)C2CCCCC2)c(F)c1)C(=O)N1CCN(C)CC1` [Compound 782] it was “X1b (compounds were evaluated up to 10 uM and inhibited activity at 10 uM by less than 20%)”. As to `CCn1nccc1C(=O)N[C@H](C(=O)Nc1ccc([C@H](C)[C@@H](NC(=O)c2cncn2C)C(=O)N2CCN(C)CC2)cc1F)C1CCCCC1` [Compound 657], the IC50 is 100 to 10000 nM.

As to `CCC(=O)N[C@H](Cc1ccc(NC(=O)[C@@H](NC(=O)c2ccnn2C(C)C)C2CCCCCC2)c(F)c1)C(=O)N1CCN(C)CC1` [Compound 238], the IC50 was 10 to 100 nM. Same read-out and setting: in the case of `CCn1nccc1C(=O)N[C@H](C(=O)Nc1ccc([C@H](C)[C@@H](NC(=O)[C@@H]2CCCO2)C(=O)N2CCN(C)CC2)cc1F)[C@H]1CC[C@H](C)CC1` [Compound 477] it was 10 to 100 nM. Same read-out and setting: in the case of `C[C@@H](c1ccc(NC(=O)[C@@H](NC(=O)c2ccnn2C2COC2)[C@H]2CC[C@H](C)CC2)c(F)c1)[C@@H](NC(=O)c1cnns1)C(=O)N1CCN(C)CC1` [Compound 546] it was 10 to 100 nM; in that of `CCC(=O)N[C@@H](C(=O)N1CCN(CCO)CC1)[C@@H](C)c1ccc(NC(=O)[C@@H](NC(=O)c2ccnn2CC)[C@H]2CC[C@H](C)CC2)c(F)c1` [Compound 423], 10 to 100 nM; in that of `CCC(=O)N[C@@H](C(=O)N1CCN(C)CC1)[C@@H](C)c1ccc(NC(=O)[C@@H](NC(=O)C(F)(F)c2csc(C)c2)[C@H]2CC[C@H](C)CC2)c(F)c1` [Compound 276], 10 to 100 nM. In the case of `CCC(=O)N[C@@H](C(=O)N1CCN(C)CC1)[C@@H](C)c1ccc(NC(=O)[C@@H](NC(=O)c2conc2CC)[C@H]2CC[C@H](C)CC2)c(F)c1` [Compound 264], the IC50 was 10 to 100 nM. Same read-out and setting: for `CCC(=O)N[C@@H](C(=O)N1CCN(C)CC1)[C@@H](C)c1ccc(NC(=O)[C@@H](NC(=O)C(F)(F)C2CCCCC2)C2CCCCC2)c(F)c1` [Compound 252] the value was 10 to 100 nM. Take `CCC(=O)N[C@@H](C(=O)N1CCN(C)CC1)[C@@H](C)c1ccc(NC(=O)C(NC(=O)c2nonc2CC)C(CC)c2ccc(Cl)cc2)c(F)c1` (stereo partly shown) [Compound 567]: the “IL-17A/A inhibition (pIC50)” value was “X2b (compounds were evaluated up to 1 uM and inhibited activity at 1 uM by less than 20%)”. As to `CCC(=O)N[C@@H](C(=O)N1CCN(C)CC1)[C@@H](C)c1ccc(NC(=O)[C@@H](NC(=O)c2ccnn2CC)C2CCC(F)(F)CC2)c(F)c1` [Compound 240], the IC50 is 10 to 100 nM. In the case of `CCC(=O)N[C@@H](C(=O)N1CCN(C)CC1)[C@@H](C)c1ccc(NC(=O)C(NC(=O)c2ccnn2CC)C(C)C2CCC(C)CC2)c(F)c1` (stereo partly shown) [Compound 612], the “IL-17A/A inhibition (pIC50)” value was “X2b (compounds were evaluated up to 1 uM and inhibited activity at 1 uM by less than 20%)”. Turning to `CCn1nccc1C(=O)N[C@H](C(=O)Nc1ccc([C@H](C)[C@@H](NC(=O)[C@H](C)CC(=O)O)C(=O)N2CCN(C)CC2)cc1F)[C@H]1CC[C@H](C)CC1` [Compound 474], the IC50 was 10 to 100 nM.

For the compound `CCC(=O)N[C@H](Cc1ccc(NC(=O)[C@@H](NC(=O)c2ccnn2CC)C2CCCCC2)c(F)c1)C(=O)N1CCN(Cc2ccccc2)CC1` [Compound 325], the IC50 was 10 to 100 nM. On the same count and under the same terms, in the case of `CCC(=O)N[C@@H](C(=O)N1CCN(C)CC1)[C@@H](C)c1ccc(NC(=O)[C@@H](NC(=O)C(F)(F)c2cccc(C#N)c2)[C@H]2CC[C@H](C)CC2)c(F)c1` [Compound 282] it was under 10 nM; in that of `CCn1nccc1C(=O)N[C@H](C(=O)Nc1ccc([C@H](C)[C@@H](NC(=O)c2c[nH]c(=O)[nH]2)C(=O)N2CCN(C)CC2)cc1F)C1CCCCC1` [Compound 681], 100 to 10000 nM; in that of `CCc1nonc1C(=O)N[C@H](C(=O)Nc1ccc([C@H](C)[C@@H](NC(=O)C(C)(F)F)C(=O)N2CCN(C)CC2)cc1F)[C@H]1CC[C@H](C)CC1` [Compound 501], 10 to 100 nM. On the same count and under the same terms, in the case of `CCn1nccc1C(=O)N[C@H](C(=O)Nc1ccc([C@H](C)[C@@H](NC(=O)NC)C(=O)N2CCN(C)CC2)cc1F)C1CCCCC1` [Compound 636] it was 100 to 10000 nM. Still for that read-out and setting: for `CCC(=O)N[C@@H](C(=O)N1C[C@@H](C)N(C)[C@@H](C)C1)[C@@H](C)c1ccc(NC(=O)[C@@H](NC(=O)c2nonc2CC)[C@H]2CC[C@H](C)CC2)c(F)c1` [Compound 452] the value was under 10 nM.

`CCc1nonc1C(=O)N[C@H](C(=O)Nc1ccc([C@H](C)[C@@H](NC(=O)c2ccnc3c2OCCO3)C(=O)N2CCN(C)CC2)cc1F)[C@H]1CC[C@H](C)CC1` [Compound 579]: the IC50 is 10 to 100 nM. On the same count and under the same terms, in the case of `CCC(=O)N[C@@H](C(=O)N1CCN(C)CC1)[C@@H](C)c1ccc(NC(=O)[C@@H](NC(=O)c2nonc2CC)[C@H](C)[C@H]2CC[C@H](C)CC2)c(F)c1` [Compound 586] it was under 10 nM; in that of `CCn1nccc1C(=O)N[C@H](C(=O)Nc1ccc([C@H](C)[C@@H](NC(=O)[C@H](C)OC)C(=O)N2CCN(C)CC2)cc1F)[C@H]1CC[C@H](C)CC1` [Compound 476], under 10 nM; in that of `COc1ncc(C(F)(F)C(=O)N[C@H](C(=O)Nc2ccc([C@H](C)[C@@H](NC(=O)c3cnns3)C(=O)N3CCN(C)CC3)cc2F)[C@H]2CC[C@H](C)CC2)cn1` [Compound 621], 10 to 100 nM.

As for `CCC(=O)N[C@H](Cc1ccc(NC(=O)[C@@H](NC(=O)C(F)(F)c2ccc(OC)nc2)C2CCCCCC2)c(F)c1)C(=O)N1CCN(C)CC1` [Compound 214], the IC50 was 10 to 100 nM. On the same count and under the same terms, for `CCc1nonc1C(=O)N[C@H](C(=O)Nc1ccc([C@H](C)[C@@H](NC(=O)NC2CC2)C(=O)N2CCN(C)CC2)cc1F)[C@H]1CC[C@H](C)CC1` [Compound 517] the value was under 10 nM; for `CCC(=O)N[C@@H](C(=O)N1CCN(C)CC1)[C@@H](C)c1ccc(NC(=O)[C@@H](NC(=O)C(F)(F)c2cncc(OC)c2)[C@H]2CC[C@H](C)CC2)c(F)c1` [Compound 281], 10 to 100 nM. With `CCc1nonc1C(=O)N[C@H](C(=O)Nc1ccc([C@H](C)[C@@H](NC(=O)c2ncccc2OC)C(=O)N2CCN(C)CC2)cc1F)[C@H]1CC[C@H](C)CC1` [Compound 578], the “IL-17A/A inhibition (pIC50)” value was “X3b (compounds were evaluated up to 0.3 uM and inhibited activity at 0.3 uM by less than 20%)”.

For the compound `CCC(=O)N[C@H](Cc1ccc(NC(=O)[C@@H](NC(=O)c2ccnn2CC)[C@@H](C)c2ccccc2)c(F)c1)C(=O)N1CCN(C)CC1` [Compound 647], the IC50 was 100 to 10000 nM. On the same count and under the same terms, for `CCC(=O)N[C@@H](C(=O)N1CCN(C)CC1)[C@@H](C)c1ccc(NC(=O)[C@@H](NC(=O)c2ccnn2C2COC2)[C@H]2CC[C@H](C)CC2)c(F)c1` [Compound 545] the value was 10 to 100 nM; for `CCC(=O)NC(C(=O)N1CCN(C(C)C)CC1)[C@@H](C)c1ccc(NC(=O)[C@@H](NC(=O)c2ccnn2CC)[C@H]2CC[C@H](C)CC2)c(F)c1` (single isomer, unassigned) [Compound 368], 10 to 100 nM.

As to `CCc1nonc1C(=O)N[C@H](C(=O)Nc1ccc([C@H](C)[C@@H](NC(=O)[C@H](C)F)C(=O)N2CCN(C)CC2)cc1F)[C@H]1CC[C@H](C)CC1` [Compound 491], the IC50 was 10 to 100 nM.

These data come from patent publication US12421212B2, “Substituted benzenecarboxamides as IL-17A modulators” (DiCE Alpha, Inc., priority 2019, dated 2025).
